From publication PMC12483982, “MTS1 regulates rice plant architecture by mediating phosphoinositide metabolism” (Plant Biotechnology Journal, 2025) come the findings set out here.

This assay has as its target T1, NGR5 (GST-NGR5) (Oryza sativa, UniProt X5HYT8).
T1 construct: gene SMOS1; recombinant GST fusion from E. coli Rosetta (DE3), glutathione sepharose, GST tag kept; NT-647 NHS labelled
T1 sequence (X5HYT8 1-425): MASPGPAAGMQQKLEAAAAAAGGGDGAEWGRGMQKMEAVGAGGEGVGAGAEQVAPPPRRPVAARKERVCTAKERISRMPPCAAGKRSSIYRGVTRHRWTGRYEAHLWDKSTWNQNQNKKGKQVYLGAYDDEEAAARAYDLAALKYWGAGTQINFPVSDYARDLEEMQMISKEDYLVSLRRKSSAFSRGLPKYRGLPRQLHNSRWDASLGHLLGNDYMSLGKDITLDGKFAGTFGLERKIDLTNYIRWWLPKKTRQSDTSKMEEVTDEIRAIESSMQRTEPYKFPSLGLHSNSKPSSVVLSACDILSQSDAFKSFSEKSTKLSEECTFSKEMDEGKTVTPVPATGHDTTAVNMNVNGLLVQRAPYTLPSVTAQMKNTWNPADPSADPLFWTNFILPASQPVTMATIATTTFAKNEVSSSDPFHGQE
In words: microscale thermophoresis (NT.[…]). It counts as binding. The conditions noted are these: NT-647 NHS-labelled GST-NGR5 10 nM; phosphate buffer with 0.005% Tween-20; 30 min; also seen in lipid-protein overlay.

Take phosphatidylinositol 4-phosphate [PI4P]: the Kd – broadly, the constant that tells how readily two partners part at equilibrium – turned out to be 1.14 ± 0.6 µM.
